The results in this text go back to PubChem BioAssay AID179 (DTP/NCI, 2004).

Values joined by “and” are separate entries in the source; they are usually repeats but may differ in a detail not shown here. Identical values can stand only once. Active and inactive are the calls of the source.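 Rule for the calls: active = compounds giving half or more protection of infected cells from virus-caused growth loss, again on retest; inactive = the rest.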 Where a SMILES comes first, the peptide text is derived from it. [ ]: non-standard residue; d: D form. The star is where a group is joined. Chg = N[CH](C(=O)O)C1CCCCC1; Cbz = O=C(OCc1ccccc1)*; OBn = c1ccc(CO*)cc1

The experiment deals with CEM cells HIV-1 protection, formazan growth assay. The experiment is described as follows: NCI AIDS Antiviral Assay. Particulars: for IC50: measured here: growth of uninfected CEM cells. The method, boiled down: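 Soluble formazan readout of cell growth; CEM cells ± HIV-1; 5 drug concs. ≥50% protection → retest; ≥50% again = moderately active; reproducible 100% = confirmed active.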

The EC50 is the concentration giving half of the maximal effect. As usually defined, the IC50 is the concentration that inhibits the measured activity by half. A higher IC50 goes with weaker potency in that assay. Consider `CCOP1(=O)C=C(Sc2ccc([N+](=O)[O-])cc2[N+](=O)[O-])C(C)(C)O1` (stereo unspecified), for which the EC50 is over 200 µM and the IC50 was 110 µM.
In the case of `COc1ccc(-c2c(C#N)c(-c3ccc(C)cc3)n(NS(=O)(=O)c3ccccc3)c(=O)c2C#N)cc1`, the EC50 was over 200 µM and the IC50 was 29.5 µM.
For `CCc1nc(N)nc(C(=O)NCCNC(=O)c2nc(N)nc(CC)c2C)c1C` the same measures were over 67.6 µM and over 67.6 µM.
For the compound `OC(CNc1ccccn1)c1ccccc1` (stereo unspecified), the EC50 was over 200 µM and the IC50 is over 200 µM.
Regarding `CC#CC(O)(C(=O)OC1CCCN(C)C1)C1=CC=CCC1` (stereo unspecified), the EC50 is over 200 µM and the IC50 was over 200 µM.
Regarding `Cn1c2ccc(Cl)cc2c2ccc3c(c21)C(=O)C=CC3=O`, the EC50 is over 100 µM and the concentration for half-maximal inhibition (IC50) amounted to 12.9 µM.
Regarding `CCCCCC1OC1C/C=C\CCCCCCCC(=O)OCC(O)COC(=O)CCCCCCC/C=C\CC1OC1CCCCC` (stereo unspecified), the EC50 was over 200 µM and the 50% inhibitory concentration (IC50) was over 200 µM.
Consider `Cc1ccccc1C1=C/C(=C(\SS/C(C(=O)c2ccc(OCC(=O)O)c(Cl)c2Cl)=C2\C=C(c3ccccc3C)SS2)C(=O)c2ccc(OCC(=O)O)c(Cl)c2Cl)SS1`, for which the EC50 is over 26.9 µM and the IC50 is over 26.9 µM.
For the compound `COc1cc2c(cc1OC)C(N(C)C)C(c1ccccc1)=C2Cl` (stereo unspecified), the EC50 was over 55 µM and the half-inhibitory concentration (IC50) came to 33.1 µM.
In the same order, the values of `Cc1nc2c3c(Cc4ccccc4)c(C)[nH]c3ncn2n1` are over 200 µM and 117 µM.
Turning to `O=c1ccc2ccc(S)cc2o1`, the EC50 is over 200 µM and the 50% inhibitory concentration (IC50) amounted to 32.4 µM.
For `COC(=O)C12CC3CC(CC(NC(=O)C(Cc4ccccc4)NC(=O)CN)(C3)C1)C2` (stereo unspecified) the same measures were over 200 µM and 110 µM.
For the compound `O=c1c(Nc2ccccc2)cn(CCOc2ccc(Cl)cc2)c(=O)n1CCOc1ccc(Cl)cc1`, the EC50 is over 200 µM and the IC50 came out at 145 µM.
For `CSc1nnc2nc[nH]n12`, the EC50 is over 200 µM and the IC50 is over 200 µM.
Consider `COC1(C2c3ccccc3CCN2C(=O)OC(C)(C)C)C(=O)C(c2ccccc2)=C1N(C)C` (stereo unspecified), for which the EC50 was over 200 µM and the concentration for half-maximal inhibition (IC50) was determined as 36.3 µM.
As for `OCCN1CCN(CC/C=C2/c3ccccc3Sc3ccc(Cl)cc32)CC1`, the EC50 is over 200 µM and the IC50 amounted to 7.41 µM.
For `C=CCCCC12CCCc3cccc(c31)NC2=S` (stereo unspecified) the same measures were over 200 µM and 14.1 µM.
Regarding `CC(C)(C)OC(=O)c1cc(NC(=S)c2ccccc2)ccc1Cl`, the concentration giving a half-maximal response (EC50) is 0.363 µM and the IC50 is 19.1 µM.
Turning to `COC(=O)C(NC(=O)C(CC(=O)OCc1ccccc1)NC(=O)OCc1ccccc1)C1CCCCC1` (stereo unspecified) (Cbz-Asp(OBn)-[Chg]-OMe; configuration not given here), the EC50 is over 200 µM and the IC50 was determined as 105 µM.
In the case of `COc1cc(C(Cc2ccccc2)NC(C)=O)oc(=O)c1` (stereo unspecified), the EC50 is over 871 µM and the half-inhibitory concentration (IC50) stood at 155 µM.
On to `CC12c3ccccc3C(C)(c3c1ccc1ccccc31)C1C(=O)OC(=O)C12` (stereo unspecified), for which the EC50 is over 38.9 µM and the IC50 was 26.9 µM.
`CN1C2CC(C#N)C1C=CC2=O` (stereo unspecified): the EC50 was over 200 µM; the half-maximal inhibitory concentration (IC50) is 32.4 µM and 107 µM.
Consider `Cn1c(N)nc(-c2ccc(Cl)cc2)c1SSc1c(-c2ccc(Cl)cc2)nc(N)n1C`, for which the EC50 was over 200 µM and the 50% inhibitory concentration (IC50) is over 200 µM.
As for `COc1ccccc1-c1cc(=O)c2ccc(OC)c(OC)c2o1`, the EC50 was over 200 µM and the IC50 is 33.1 µM.
`Cc1nc2c(nc1C)C(=O)C(N(C)C)=CC2=O`: the result was inactive.
As for `Nc1nc2c(=O)c3ccccc3sc2s1`, the result was inactive.
In the case of `Cc1ccc(-c2nnc(CCCCCCCCc3nnc(-c4ccc(C)cc4O)n3N)n2N)c(O)c1`, the EC50 was over 200 µM and the IC50 was determined as 120 µM.
As to `CCOC(=O)NC(=O)c1cn(CCCCCCOC(=O)NCCCCCCNC(=O)OCCCCCCn2cc(C(=O)NC(=O)OCC)c(=O)[nH]c2=O)c(=O)[nH]c1=O`, the result was inactive.
For the compound `O=C(Nc1ccc(S(=O)(=O)Nc2ccc(N=Nc3ccc(S(=O)(=O)Nc4nccs4)cc3)cc2)cc1)C(N1CC1)(N1CC1)N1CC1`, the EC50 is over 200 µM and the IC50 came to 129 µM.
With `OC(C#CC(O)(c1ccccc1)c1ccccc1)(c1ccccc1)c1ccccc1`, the EC50 was over 200 µM and the IC50 came to 11 µM.
Take `CC1=C2c3c(C)ccc4ccc(C)c(c34)C2(O)C(C)C1=O` (stereo unspecified): the EC50 is over 200 µM and the IC50 was over 200 µM.
On to `Cc1ccc(-c2cc(-c3ccccc3)c(C#N)c(=O)n2C2OC(CO)C(O)C(O)C2O)cc1` (stereo unspecified), for which the EC50 was 21.4 µM and the IC50 turned out to be 22.4 µM.
With `CC[C@@H]1C2CC3C4N(C)c5ccccc5[C@]45C[C@@H](C2C5O)N3C1O` (stereo partly specified), the outcome was inactive.
Turning to `O=C1OCC2=Nc3cccc4cccc(c34)N12`, the EC50 was over 0.676 µM and the 50% inhibitory concentration (IC50) stood at 0.331 µM.
Turning to `Cn1c(=O)c2c(ncn2Cc2ccc(O)c([N+](=O)[O-])c2)n(C)c1=O`, the EC50 was over 200 µM and the IC50 is over 100 µM.
For the compound `Nc1nc2c3nc(Nc4ccccc4)sc3nc(=O)n2c2sc(Nc3ccccc3)nc12`, the EC50 was over 5.89 µM and the half-maximal inhibitory concentration (IC50) was over 5.89 µM.
Take `COc1ccccc1NC(=O)/C(=C/n1c(=S)[nH]c2cc(C)ccc21)C(C)=O`: the EC50 was over 200 µM and the IC50 was 151 µM.
For `COc1cc(/C=N\NC(=O)C[N+](C)(C)C)cc(OC)c1OC`, the EC50 was over 200 µM and the half-maximal inhibitory concentration (IC50) was over 200 µM.
In the case of `NCCCCC(NC(=O)C(CO)NC(=O)C(N)Cc1cnc[nH]1)C(=O)NC(Cc1ccccc1)C(=O)NC(Cc1c[nH]c2ccccc12)C(=O)NC(Cc1c[nH]c2ccccc12)C(N)=O` (stereo unspecified) (H-HSKFWW-NH2; configuration not given here), the EC50 was over 50.1 µM and the concentration for half-maximal inhibition (IC50) was over 50.1 µM.
Turning to `Cn1c(N)c(N=O)c(=O)n(C)c1=S`, the EC50 was over 200 µM and the IC50 was over 200 µM.
Take `CC1(C(=O)O)CCC[C@@]2(C)C1CC[C@@]1(C)c3cocc3CCC21` (stereo partly specified): the result was inactive.
On to `Cc1cccc(NC(=O)CC(=O)N2N=C(N(CCC#N)c3ccc(Cl)cc3)CC2c2ccccc2)c1` (stereo unspecified), for which the EC50 was over 100 µM and the 50% inhibitory concentration (IC50) is over 100 µM.
With `Cc1cc(C)c(O)c(CN(Cc2ccccn2)Cc2ccccn2)c1`, the result was inactive.
For `CC1OC(n2cc(C(F)(F)F)c(=O)[nH]c2=O)C=CC1=O` (stereo unspecified), the EC50 is over 447 µM and the half-maximal inhibitory concentration (IC50) is 3.39 µM.
Turning to `CN(/N=N/N(C)c1ccccc1)c1ccccc1`, the EC50 is over 200 µM and the concentration for half-maximal inhibition (IC50) is over 200 µM.
On to `Cc1cc(N(CCC#N)S(C)(=O)=O)ccc1C=Nc1ccc(C(=O)NN2C(=O)/C(=C/c3ccc(N(CCC#N)CCC#N)cc3C)N=C2c2cc([N+](=O)[O-])ccc2Cl)cc1`, for which the EC50 was over 42.7 µM and the IC50 was over 42.7 µM.
In the case of `CCOP(=O)(OCC)C(C)(CC)N/C(=N/C(NC(C)=O)(C(F)(F)F)C(F)(F)F)NC1=NC(C(F)(F)F)(C(F)(F)F)N=C(C(F)(F)F)O1` (stereo unspecified), the EC50 was over 200 µM and the IC50 was 14.5 µM.
Take `CCOC(=O)C1C(c2ccc(OC)cc2)c2c([nH][nH]c2=O)CC1(O)OCC` (stereo unspecified): the outcome was inactive.
As to `CC(=O)NC(CCCCNC(=O)OCc1ccccc1)C(=O)NCc1ccccc1` (stereo unspecified), the EC50 is over 87.1 µM and the IC50 is over 87.1 µM.
Regarding `CCCn1c(=O)c(N2CCN(c3ccccc3)CC2)nc2sc3ccccc3c21`, the EC50 is over 200 µM and the IC50 was over 200 µM.
In the case of `Cc1cccc(NC(=O)c2cc3cc(N=Nc4ccccc4Cl)ccc3oc2=O)c1`, the EC50 is over 24 µM and the IC50 was over 24 µM.
For `Cc1c2c(C(N)=O)nccc2c(C)c2c1c1ccccc1n2Cc1ccccc1`, the outcome was inactive.
Take `CC1CCC2(C)C(CC=C(C=O)C2(O)C=O)C12CO2` (stereo unspecified): the outcome was inactive.
Consider `Cc1ccc(Nc2nc(NS(=O)(=O)c3cc(C(=O)Nc4ccc(Cl)cc4)c(Cl)cc3S)n[nH]2)cc1`, for which the EC50 was over 195 µM and the IC50 was found to be 178 µM.
As for `C#CC1(O)C(/C=N/O)OC(n2ccc(=O)[nH]c2=O)C1O[Si](C)(C)C(C)(C)C` (stereo unspecified), the EC50 was over 200 µM and the 50% inhibitory concentration (IC50) stood at 72.4 µM.
On to `FC(F)C(F)(F)C(F)(F)C(F)(F)C(F)(F)C(F)(F)COC(OCC(F)(F)C(F)(F)C(F)(F)C(F)(F)C(F)(F)C(F)F)OCC(F)(F)C(F)(F)C(F)(F)C(F)(F)C(F)(F)C(F)F`, for which the EC50 is over 200 µM and the IC50 was over 200 µM.
With `Cc1cc2c(=O)cc(-c3ccc(C(=O)O)cc3)oc2c(C(=O)O)c1C`, the result was inactive.
With `CC1C(=O)C2C1CS2(=O)=O` (stereo unspecified), the EC50 is over 1260 µM and the IC50 came out at 1120 µM.
Take `COc1cc(C(=O)N(C(=S)OCc2ccccn2)c2ccccc2)cc(OC)c1OC`: the EC50 was over 200 µM and the IC50 came to 74.1 µM.
As for `CCN(CC)CCN1CC(=O)N2CCCCN2C(=O)C1`, the EC50 is over 200 µM and the IC50 is over 200 µM.
In the case of `CC(=O)OCCSSCCOC(C)=O`, the EC50 was over 200 µM and the 50% inhibitory concentration (IC50) was determined as 89.1 µM.
In the case of `c1ccc(SSc2ccccc2)cc1`, the EC50 is over 200 µM and the 50% inhibitory concentration (IC50) is 5.62 µM.
Regarding `C/C(CC(=O)CCCC(=O)Nc1ccc(Cl)cc1Cl)=N/NC(=O)CC#N`, the EC50 is over 18.2 µM and the concentration for half-maximal inhibition (IC50) was over 18.2 µM.
Consider `CN(C)CCCNC(=O)c1cc(NC(=O)c2cc(NC(=O)c3cc(NC(=O)c4ncccc4C(=O)O)cn3C)cn2C)cn1C`, for which the EC50 is over 200 µM and the half-maximal inhibitory concentration (IC50) is over 200 µM.
For `COC1/C=C/OC2(C)Oc3c(C)c(O)c4c(O)c(c(C=NN5C(C)CC(Cc6ccccc6)CC5C)c(O)c4c3C2=O)NC(=O)/C(C)=C/C=C/C(C)C(O)C(C)C(O)C(C)C(OC(C)=O)C1C` (stereo unspecified), the EC50 is over 200 µM and the IC50 came to 8.71 µM.
For `CN1CC2=C(NCNS2(=O)=O)N(C)C1`, the EC50 is over 148 µM and the 50% inhibitory concentration (IC50) is over 148 µM.
Turning to `CC/C=C\C/C=C\C/C=C\CCCCCCCC(=O)OCC(O)CO` (stereo unspecified), the EC50 was over 28.2 µM and the 50% inhibitory concentration (IC50) was over 28.2 µM.
Regarding `C[C@H]1[C@H](C)N1CC(O)Cn1ccnc1[N+](=O)[O-]` (stereo partly specified), the EC50 was over 200 µM and the IC50 was over 200 µM.
